Reference: patent US20120282377A1, “Methods and Formulations for Inhibiting Degradation of Photosensitive Sweeteners and Sweetener Enhancers” (priority 2011, published 2012)

Experiments:
[1] = Stability of monatin in lemon lime matrix under visible light (Example 2); assay type: physicochemical
Description: (§1) High-potency sweetener monatin was evaluated for stability to sunlight exposure when formulated into a beverage packaged in PET packaging (bottle) with and without a UV barrier or in a dark-colored PET packaging. This study was designed to evaluate the stability of RR stereoisomer of monatin under normal visible light and under ultraviolet light in the Atlas sun-test chamber using normal PET bottles, PET packaging with a UV barrier and dark PET packaging. For this purpose monatin solution was made in a lemon lime carbonated beverage matrix without any flavor added.
(§2) The RR isomer of monatin was used for the present study after satisfactory HPLC and LC-MS data analyses confirmed that this sample greater than 95% pure. A lemon lime beverage matrix without flavor was used as the matrix base. The concentration of monatin in the matrix was 30 ppm.
(§3) Due to lack of any RR-monatin standard, its stereoisomer, SS-monatin was used for HPLC calibration curve preparation as it appears at the same retention time as RR-monatin.
(§4) Quantitative analysis of monatin via UV detection in LC-MS was done for all the samples. The methodology employed a 12% acetonitrile (solvent A) in 50 mM ammonium formate (pH 4.0, solvent B) for 5 min followed by a linear gradient to 34% acetonitrile over 5 min; Detection: UV @278 nm].
(§5) 1) regular PET bottles, 300 mL or 8 Oz (bottle type A). 2) PET bottles with a UV barrier, 600 mL or 16 Oz, fresh un-used bottle* (bottle type B). * It was shown that the UV barrier capacity decreased after one use in the commercially bought 20 Oz PET bottles with a UV barrier (See the UV scan data in FIG. 1). 3) dark-colored PET bottles (bottle type C). UV light source: Atlas Sun-test chamber. Under program 1 of sun-test chamber, 6 hr of exposure is equal to one day of sun-light exposure in Arizona or 400 Langley at 40° C. Control Experiment: UV irradiation by using only a lemon lime matrix (no monatin added) in regular PET bottles and running the sun-test chamber for four days equivalent exposure was carried out. The purpose of this experiment was to make sure no artifact arises from lemon lime matrix in the monatin absorption region. No new signals were identified. 13 bottles were used in the monatin-lemon-lime matrix experiments: 1 regular PET at zero time and 3 regular PET bottles; 2 PET bottles with a UV barrier bottles and 7 dark-colored PET bottles. Zero time sample protocol: 330 mL PET bottle was filled up to ⅓^rd full, flushed with nitrogen, covered with foil and then kept at 4° C. Sample aliquot protocol: 5 mL was taken out in a 20 mL opaque glass scintillation vial. Both vial and experimental bottle were flushed with nitrogen. The vial was covered with foil and kept at 4° C.
(§6) LC-MS analysis was carried out on all the samples in the same day as their maturation. A new monatin calibration curve was made every day with the SS-monatin sample.
For these experiments, visible light is the normal laboratory light which was left on all the time during the experiment.

[2] = Stability of monatin in lemon lime matrix under ultraviolet light, Atlas sun-test chamber (Example 2); assay type: physicochemical; details: for monatin sample degraded: four days equivalent of ultraviolet light exposure (24 hours in UV chamber)
Description: as §1, §2, §3, §4, §5, §6
For these experiments samples were kept in the Atlas sun-test chamber where each 6 hr exposure was equivalent to one day of sun exposure in Arizona (400 Langley). […] In particular, it was noted that under UV light in regular PET, monatin degrades by 70% in just one day's exposure.

[3] = Visual analysis of UV and light exposed monatin samples by 6 panelists; assay type: physicochemical; parameters: key: (+) = colorless; (−) = color change (color noted); details: 30 PPM in lemon lime matrix pH 3.35, panelists 1-6
Description: A survey of odor and visual analysis of the UV and light exposed samples of the monatin samples was conducted by 6 panelists. Samples for analysis were solution of monatin in a lemon lime matrix without flavor at pH 3.35 (30 PPM monatin) exposed to visible for three days or UV light for 24 hours (equivalent of four days sun exposure).

[4] = Monatin stability in PET bottle types with or without additives, 1600 Langley UV exposure (Example 5); assay type: physicochemical; details: 1600 Langley (24 hour at 40° C.); for Monatin remaining after UV exposure (ppm): control 43.3 ppm
Description: The stability of monatin in regular PET bottles, PET bottles with UV barrier (colorless or green) and with or without Chinese Green Tea polyphenol or α-cyclodextrin was evaluated. Each sample was irradiated with an irradiation energy of 1600 Langley exposure (24 hour exposure at 40° C. in Atlas SunTest XLS+chamber, which was equivalent to four day of sun exposure in Arizona). A control formulation was used that contained monatin at 43.3 ppm. The results were analyzed by LC-MS.

[5] = cited from earlier work
[6] = 0 hours of exposure in UV chamber
[7] = 6 hours of exposure in UV chamber
[8] = 12 hours of exposure in UV chamber
[9] = 18 hours of exposure in UV chamber
[10] = 24 hours of exposure in UV chamber
[11] = Green PET with UV barrier (0.12%), additives none
[12] = PET with UV barrier, Chinese Green Tea Polyphenol TP>40 (149 ppm)
[13] = PET with UV barrier, additives none
[14] = PET with UV barrier, α-cyclodextrin (729 ppm)

NC(CC(O)(Cc1c[nH]c2ccccc12)C(=O)O)C(=O)O (centres unmarked) [Monatin, 2-amino-4-carboxy-4-hydroxy-5-(3-indolyl)-pentanoic acid]
degrades upon exposure to visible light ([1]; lemon-lime matrix, any of the three types of bottles, visible light for up to 74 hours): less than 10% | Conc. in mg/L RR-Monatin in Lemon Lime matrix UV barrier PET Bottle (600 mL) ([1]; visible light 0 hours): 31.1 mg/L | Conc. in mg/L RR-Monatin in Lemon Lime matrix in Normal PET Bottle (330 mL) ([1]; visible light 0 hours): 31.1 mg/L | Conc. in mg/L RR-Monatin in Lemon Lime matrix in dark-colored PET Bottle (75 mL) ([1]; visible light 0 hours): 31.1 mg/L | Conc. in mg/L RR-Monatin in Lemon Lime matrix UV barrier PET Bottle (600 mL) ([1]; visible light 5 hours): 30.9 mg/L | Conc. in mg/L RR-Monatin in Lemon Lime matrix in Normal PET Bottle (330 mL) ([1]; visible light 5 hours): 31.0 mg/L | Conc. in mg/L RR-Monatin in Lemon Lime matrix in dark-colored PET Bottle (75 mL) ([1]; visible light 5 hours): 30.9 mg/L | Conc. in mg/L RR-Monatin in Lemon Lime matrix UV barrier PET Bottle (600 mL) ([1]; visible light 8 hours): 30.4 mg/L | Conc. in mg/L RR-Monatin in Lemon Lime matrix in Normal PET Bottle (330 mL) ([1]; visible light 8 hours): 30.4 mg/L | Conc. in mg/L RR-Monatin in Lemon Lime matrix in dark-colored PET Bottle (75 mL) ([1]; visible light 8 hours): 30.4 mg/L | Conc. in mg/L RR-Monatin in Lemon Lime matrix UV barrier PET Bottle (600 mL) ([1]; visible light 26 hours): 29.8 mg/L | Conc. in mg/L RR-Monatin in Lemon Lime matrix in Normal PET Bottle (330 mL) ([1]; visible light 26 hours): 29.7 mg/L | Conc. in mg/L RR-Monatin in Lemon Lime matrix in dark-colored PET Bottle (75 mL) ([1]; visible light 26 hours): 29.9 mg/L | Conc. in mg/L RR-Monatin in Lemon Lime matrix UV barrier PET Bottle (600 mL) ([1]; visible light 31 hours): 29.5 mg/L | Conc. in mg/L RR-Monatin in Lemon Lime matrix in Normal PET Bottle (330 mL) ([1]; visible light 31 hours): 29.7 mg/L | Conc. in mg/L RR-Monatin in Lemon Lime matrix in dark-colored PET Bottle (75 mL) ([1]; visible light 31 hours): 29.7 mg/L | Conc. in mg/L RR-Monatin in Lemon Lime matrix UV barrier PET Bottle (600 mL) ([1]; visible light 49 hours): 28.9 mg/L | Conc. in mg/L RR-Monatin in Lemon Lime matrix in Normal PET Bottle (330 mL) ([1]; visible light 49 hours): 29.2 mg/L | Conc. in mg/L RR-Monatin in Lemon Lime matrix in dark-colored PET Bottle (75 mL) ([1]; visible light 49 hours): 29.3 mg/L | Conc. in mg/L RR-Monatin in Lemon Lime matrix UV barrier PET Bottle (600 mL) ([1]; visible light 56 hours): 29.2 mg/L | Conc. in mg/L RR-Monatin in Lemon Lime matrix in Normal PET Bottle (330 mL) ([1]; visible light 56 hours): 29.1 mg/L | Conc. in mg/L RR-Monatin in Lemon Lime matrix in dark-colored PET Bottle (75 mL) ([1]; visible light 56 hours): 29.2 mg/L | Conc. in mg/L RR-Monatin in Lemon Lime matrix UV barrier PET Bottle (600 mL) ([1]; visible light 74 hours): 28.7 mg/L | Conc. in mg/L RR-Monatin in Lemon Lime matrix in Normal PET Bottle (330 mL) ([1]; visible light 74 hours): 28.8 mg/L | Conc. in mg/L RR-Monatin in Lemon Lime matrix in dark-colored PET Bottle (75 mL) ([1]; visible light 74 hours): 28.9 mg/L | Conc. in mg/L RR-Monatin in Lemon Lime matrix in Normal PET Bottle (330 mL) [2, 6]: 31.1 mg/L | Conc. in mg/L RR-Monatin in Lemon Lime matrix in UV barrier PET Bottle (600 mL) [2, 6]: 31.1 mg/L | Conc. in mg/L RR-Monatin in Lemon Lime matrix in dark-colored PET Bottle (75 mL) [2, 6]: 31.1 mg/L | Conc. in mg/L RR-Monatin in Lemon Lime matrix in Normal PET Bottle (330 mL) [2, 7]: 9.0 mg/L | Conc. in mg/L RR-Monatin in Lemon Lime matrix in UV barrier PET Bottle (600 mL) [2, 7]: 27.6 mg/L | Conc. in mg/L RR-Monatin in Lemon Lime matrix in dark-colored PET Bottle (75 mL) [2, 7]: 29.2 mg/L | Conc. in mg/L RR-Monatin in Lemon Lime matrix in Normal PET Bottle (330 mL) [2, 8]: 2.1 mg/L | Conc. in mg/L RR-Monatin in Lemon Lime matrix in UV barrier PET Bottle (600 mL) [2, 8]: 22.4 mg/L | Conc. in mg/L RR-Monatin in Lemon Lime matrix in dark-colored PET Bottle (75 mL) [2, 8]: 29.1 mg/L | Conc. in mg/L RR-Monatin in Lemon Lime matrix in Normal PET Bottle (330 mL) [2, 9]: 0.3 mg/L | Conc. in mg/L RR-Monatin in Lemon Lime matrix in UV barrier PET Bottle (600 mL) [2, 9]: 9.8 mg/L | Conc. in mg/L RR-Monatin in Lemon Lime matrix in dark-colored PET Bottle (75 mL) [2, 9]: 29.0 mg/L | Conc. in mg/L RR-Monatin in Lemon Lime matrix in Normal PET Bottle (330 mL) [2, 10]: 0.0 mg/L | Conc. in mg/L RR-Monatin in Lemon Lime matrix in UV barrier PET Bottle (600 mL) [2, 10]: 3.6 mg/L | Conc. in mg/L RR-Monatin in Lemon Lime matrix in dark-colored PET Bottle (75 mL) [2, 10]: 28.6 mg/L | degradation upon exposure to UV light ([2]; Regular PET bottles and PET with UV barrier bottles): did not prevent degradation of monatin | monatin sample degraded ([2]; UV barrier PET bottle): ~90% | monatin degrades ([2]; UV light, regular PET, one day's exposure): 70% | monatin sample degraded ([2]; dark-colored PET bottle): less than 10% | degradation, UV light versus visible light ([2]; lemon-lime matrix): degrade faster upon UV light exposure than upon visible light exposure | degradation upon exposure to UV light ([2]; monatin solution in dark-colored PET bottles): prevented most of the monatin from degrading | monatin sample degraded ([2]; normal PET bottle): all of the monatin sample in the normal PET bottle had degraded | Visual analysis ([3]; PET with UV barrier, UV light 24 hours): − | Visual analysis ([3]; PET with UV barrier, visible light three days): + | Visual analysis ([3]; Regular PET, UV light 24 hours): − | Visual analysis ([3]; Regular PET, visible light three days): + | Monatin remaining after UV exposure (%) [4, 11]: 65.6% | Monatin remaining after UV exposure (ppm) [4, 11]: 28.4 ppm | Monatin remaining after UV exposure (%) [4, 12]: 77.6% | Monatin remaining after UV exposure (ppm) [4, 12]: 33.6 ppm | Monatin remaining after UV exposure (%) [4, 13]: 51.0% | Monatin remaining after UV exposure (ppm) [4, 13]: 22.1 ppm | Monatin remaining after UV exposure (%) [4, 14]: 33.3% | Monatin remaining after UV exposure (ppm) [4, 14]: 14.4 ppm | Monatin remaining after UV exposure (%) ([4]; Regular PET, additives none): 13.4% | Monatin remaining after UV exposure (ppm) ([4]; Regular PET, additives none): 5.8 ppm | degradation when exposed to UV light [5]: degrade to malodorous degradation products
